Laboratory results published in paper doi:10.1101/2020.05.04.072892v1 (bioRxiv, 2020).

System: GBM6 cells
Experiment: Nanoparticle internalization by flow cytometry, GBM6 cells
Format: cell-based, Human
Conditions: for cell internalization of free dye: average bulk FL of FAM with flow cytometry, over time

5,6-carboxyfluorescein [FAM]
cell internalization of free dye: cannot enter cells | cell internalization of free dye (listed as free FAM): no cell

COc1cccc2c1C(=O)c1c(O)c3c(c(O)c1C2=O)C[C@@](O)(C(=O)CO)C[C@@H]3O[C@H]1C[C@H](N)[C@H](O)[C@H](C)O1 [free DOX, doxorubicin]
time of maximum DOX fluorescence in cells (average bulk FL of DOX by FCT): 24 h
